Experimental findings from patent US9598362B2, “Benzidine derivative, method for preparing same, and pharmaceutical composition containing benzidine derivative for treating liver disease caused by hepatitis C virus” (priority 2013, dated 2017) are described below.

Read-outs that look alike come from different tables or passages of the source. Bounds are passed on as bounds.

Assay [1] relates to HCV (JFH-5aFlucm4). Description: Evaluation of anti-HCV activity 1: huh7.5.1 cells inoculated with HCV carrying renilla luciferase reporter. Type of assay: cell-based. Particulars: Hepatitis C virus. Here is the method:
To evaluate the anti-HCV activity of the compound represented by formula 1 of the present invention, the following experiment was performed.
The hepatoma cell line huh7.5.1 was distributed in a 12-well cell culture plate at the density of 50,000 cells/well. The cells were cultured in DMEM (Dulbecco's Modified Eagle's Medium 12800-017, GIBCO Co.) supplemented with 10% (v/v) FBS (Fetal Bovine Serum SH30406.02, Hyclone Co.) and 1% (v/v) antibiotics (penicillin/streptomycin solution SV30010, Hyclone Co.) in a 37° C. 6.0% CO2 incubator (CO2 Incubator 311, Forma Scientific Co, Lnc. USA) for 24 hours to lead cell attachment on the plate. Then, the cells were inoculated with HCV (JFH-5aFlucm4, PLoS One. 2011; 6(8):e228808.) having renilla luciferase gene as a reporter for 3 hours. Upon completion of the virus inoculation, the cell culture medium was replaced with the medium containing the compounds prepared in Examples 1˜24 at the concentration of 1 μM each. The cells were cultured in a 37° C. 6.0% CO2 incubator (CO2 Incubator 311, Forma Scientific Co, Lnc. USA) for 3 days. Three days after the infection, the cell culture medium was collected to measure the cytotoxicity in the following Experimental Example 3. The cells attached on the plate were washed with PBS (phosphate buffered saline) and then lysed by treating 100 μl of 1× passive lysis buffer (Promega, E1941). The cell lysate (10 μl) was added to renilla luciferase assay reagent (50 μl) in renilla luciferase assay system (Promega, E2820), followed by measurement of luminescence for 10 seconds using the luciferase measure program with Luminometer (GLOMAX 20/20 Luminometer, Promega). At this time, the measurement of luminescence was performed in triplicate with the groups treated with the compounds of Examples 1˜24 and the non-treated control group. The mean value was calculated and compared. The luminescence of each compound over the concentration was converted into EC50 (half maximal effective concentration) by using sigma plot program, and the results are shown in Table 2.

Assay [2] deals with HCV replicon NK/R2AN. Put plainly: Evaluation of anti-HCV activity 2: inhibition of HCV replication, huh7.5.1 cells with replicon NK/R2AN, renilla luciferase. Particulars: for EC50: Hepatitis C virus; for EC50 (in words): duplicated HCV treated with compound. Type of assay: cell-based. The procedure:
To evaluate the anti-HCV activity, that is the activity to inhibit HCV replication, of the compound represented by formula 1 of the present invention, the following experiment was performed.
The hepatoma cell line huh7.5.1 having NK/R2AN, the replicon with which the replication and translation of HCV could be measured, was distributed in a 12-well cell culture plate at the density of 50,000 cells/well. The cells were cultured in DMEM (Dulbecco's Modified Eagle's Medium 12800-017, GIBCO Co.) supplemented with 10% (v/v) FBS (Fetal Bovine Serum SH30406.02, Hyclone Co.), 1% (v/v) antibiotics (penicillin/streptomycin solution SV30010, Hyclone Co.), and G418 (600 μg/mL, Calbiochem) in a 37° C. 6.0% CO2 incubator (CO2 Incubator 311, Forma Scientific Co, Lnc. USA) for 24 hours to lead cell attachment on the plate. Then, the cells were inoculated with HCV having renilla luciferase gene as a reporter for 3 hours. Upon completion of the virus inoculation, the cell culture medium was replaced with the medium containing the compounds prepared in Examples 1˜24 were added to the culture medium at the concentrations of 40 pM˜1 μM each. The cells were cultured in a 37° C. 6.0% CO2 incubator (CO2 Incubator 311, Forma Scientific Co, Lnc. USA) for 3 days. Three days after the infection, the cell culture medium was collected to measure the cytotoxicity in the following Experimental Example 3. The cells attached on the plate were washed with PBS (phosphate buffered saline) and then lysed by treating 100 μl of 1× passive lysis buffer (Promega, E1941). The cell lysate (10 μl) was added to renilla luciferase assay reagent (50 μl) in renilla luciferase assay system (Promega, E2820), followed by measurement of luminescence for 10 seconds using the luciferase measure program with Luminometer (GLOMAX 20/20 Luminometer, Promega). At this time, the measurement of luminescence was performed in triplicate with the groups treated with the compounds of Examples 1˜24 and the non-treated control group. The mean value was calculated and compared. The luminescence of each compound over the concentration was converted into EC50 (half maximal effective concentration) by using sigma plot program, and the results are shown in Table 3. At this time, when EC50 was under 100 pM, it was marked as A; when EC50 was in the range of 100 pM 1 nM, it was marked as B; when EC50 was in the range of 1 nM˜100 nM, it was marked as C; and when EC50 was over 100 nM, it was marked as D. The results are shown in Table 3.

[3] abbreviates: Huh-7.5.1, 72 h, read-out: EC50 grade.
[4] abbreviates: Huh-7.5.1, replicon huh7.5.1 cells, Table 3, read-out: EC50.

As for `COC(=O)N[C@@H](C(=O)N1CCC[C@H]1C(=O)Nc1ccc2c(c1)Cc1cc(NC(=O)[C@@H]3CCCN3C(=O)[C@H](NC(=O)OC)c3ccccc3)ccc1-2)c1ccccc1` [Example 4, dimethyl((1R,1′R)-((2S,2′S)-2,2′-(((9H-fluorene-2,7-diyl)bis(azandiyl))bis(carbonyl))bis(pyrrolidine-2,1-diyl))bis(2-oxo-1-phenylethane-2,1-diyl))dicarbamate], the figures for the EC50 in assay [1] (setting [3]), in assay [2] (Huh-7.5.1) and in assay [2] (setting [3]) were 1 to 100 nM, less than 0.1 nM and less than 0.1 nM, respectively. Moreover, the “EC50 (in words)” value in assay [2] was “significantly low”.

Consider `CN(C)[C@@H](C(=O)N1CCC[C@H]1C(=O)Nc1ccc(-c2ccc(NC(=O)[C@@H]3CCCN3C(=O)[C@@H](c3ccccc3)N(C)C)cc2)cc1)c1ccccc1` [Example 14, (S,2S,2′S)—N,N′-(biphenyl-4,4′-diyl)bis(1-((S)-2-(dimethylamino)-2-phenylacetyl)pyrrolidine-2-carboxamide)], for which the EC50 in assay [1] (setting [3]) is 1 to 100 nM; in assay [2] (setting [3]), 0.1 to 1 nM.

For the compound `COC(=O)N[C@@H](C(=O)N1CCC[C@H]1C(=O)Nc1ccc2c(c1)C(C)(C)c1cc(NC(=O)[C@@H]3CCCN3C(=O)[C@H](NC(=O)OC)c3ccccc3)ccc1-2)c1ccccc1` [Example 23, dimethyl((1R,1′R)-((2S,2′S)-2,2′-(((9,9-dimethyl-9H-fluorene-2,7-diyl)bis(azandiyl))bis(carbonyl))bis(pyrrolidine-2,1-diyl))bis(2-oxo-1-phenylethane-2,1-diyl))dicarbamate], the EC50 was less than 1 nM in assay [1] (Huh-7.5.1), less than 1 nM in assay [1] (setting [3]), less than 0.1 nM in assay [2] (setting [3]) and less than 0.1 nM in assay [2] (setting [4]). Also, the “EC50 (in words)” value in assay [2] is given as “significantly low”.

As to `COC(=O)N[C@@H](C(=O)N1CCC[C@@H]1C(=O)Nc1ccc(-c2ccc(NC(=O)[C@H]3CCCN3C(=O)[C@H](NC(=O)OC)c3ccccc3)cc2)cc1)c1ccccc1` [Example 8, dimethyl((1R,1′R)-((2R,2′R)-2,2′-(([1,1′-biphenyl]-4,4′-diylbis(azandiyl))bis(carbonyl))bis(pyrrolidine-2,1-diyl))bis(2-oxo-1-phenylethane-2,1-diyl))dicarbamate], the half-maximal effective concentration (EC50) in assay [1] (setting [3]) was more than 100 nM; in assay [2] (setting [3]), 1 to 100 nM.

As to `COC(=O)N[C@@H](C(=O)N1CCCC[C@H]1C(=O)Nc1ccc(-c2ccc(NC(=O)[C@@H]3CCCCN3C(=O)[C@H](NC(=O)OC)c3ccccc3)cc2)cc1)c1ccccc1` [Example 10, dimethyl((1R,1′R)-((2S,2′S)-2,2′-(([1,1′-biphenyl]-4,4′-diylbis(azandiyl))bis(carbonyl))bis(piperidine-2,1-diyl))bis(2-oxo-1-phenylethane-2,1-diyl))dicarbamate], the EC50 was more than 100 nM in assay [1] (setting [3]) and 1 to 100 nM in assay [2] (setting [3]).

In the case of `COC(=O)N[C@@H](C(=O)N1CCC[C@]1(C)C(=O)Nc1ccc(-c2ccc(NC(=O)[C@@]3(C)CCCN3C(=O)[C@H](NC(=O)OC)c3ccccc3)cc2)cc1)c1ccccc1` [Example 12, dimethyl((1R,1′R)-((2S,2′S)-2,2′-(([1,1′-biphenyl]-4,4′-diylbis(azandiyl))bis(carbonyl))bis(2-methylpyrrolidine-2,1-diyl))bis(2-oxo-1-phenylethane-2,1-diyl))dicarbamate], the figures for the EC50 in assay [1] (setting [3]) and in assay [2] (setting [3]) were more than 100 nM and 1 to 100 nM, respectively.

Turning to `COC(=O)N[C@@H](C(=O)N1CC(=O)C[C@H]1C(=O)Nc1ccc(-c2ccc(NC(=O)[C@@H]3CC(=O)CN3C(=O)[C@H](NC(=O)OC)c3ccccc3)cc2)cc1)c1ccccc1` [Example 9, dimethyl((1R,1′R)-((5S,5′S)-5,5′-(([1,1′-biphenyl]-4,4′-diylbis(azandiyl))bis(carbonyl))bis(3-oxopyrrolidine-5,1-diyl))bis(2-oxo-1-phenylethane-2,1-diyl))dicarbamate], the EC50 in assay [1] (Huh-7.5.1) is less than 1 nM; in assay [1] (setting [3]), less than 1 nM; in assay [2] (Huh-7.5.1) it was less than 0.1 nM; in assay [2] (setting [3]), less than 0.1 nM. Besides, the “EC50 (in words)” value in assay [2] is “significantly low”.

On to `COC(=O)N[C@@H](C(=O)N1CCC[C@H]1C(=O)Nc1ccc(-c2ccc(NC(=O)[C@@H]3CCCN3C(=O)[C@H](NC(=O)OC)c3ccccc3)cc2Br)c(Br)c1)c1ccccc1` [Example 7, dimethyl((1R,1′R)-((2S,2′S)-2,2′-(((2,2′-dibromo-[1,1′-biphenyl]-4,4′-diyl)bis(azandiyl))bis(carbonyl))bis(pyrrolidine-2,1-diyl))bis(2-oxo-1-phenylethane-2,1-diyl))dicarbamate], for which the EC50 in assay [1] (Huh-7.5.1) was less than 1 nM; in assay [1] (setting [3]), less than 1 nM; in assay [2] (setting [3]), less than 0.1 nM; in assay [2] (setting [4]), less than 0.1 nM. The “EC50 (in words)” value in assay [2] was “significantly low”.

Consider `COC(=O)N[C@@H](C(=O)N1CCC[C@H]1C(=O)Nc1ccc(-c2ccc(NC(=O)[C@@H]3CCCN3C(=O)[C@H](NC(=O)OC)c3ccccc3)cc2F)c(F)c1)c1ccccc1` [Example 5, dimethyl((1R,1′R)-((2S,2′S)-2,2′-(((2,2′-difluoro-[1,1′-biphenyl]-4,4′-diyl)bis(azandiyl))bis(carbonyl))bis(pyrrolidine-2,1-diyl))bis(2-oxo-1-phenylethane-2,1-diyl))dicarbamate], for which the concentration giving a half-maximal response (EC50) in assay [1] (Huh-7.5.1) is less than 1 nM; in assay [1] (setting [3]) it was less than 1 nM; in assay [2] (setting [3]) it was less than 0.1 nM; in assay [2] (setting [4]) it was less than 0.1 nM. The “EC50 (in words)” value in assay [2] is “significantly low”.

For `COC(=O)N[C@@H](C(=O)N1CSC[C@H]1C(=O)Nc1ccc(-c2ccc(NC(=O)[C@@H]3CSCN3C(=O)[C@H](NC(=O)OC)c3ccccc3)cc2)cc1)c1ccccc1` [Example 21, dimethyl(1S,1S′)-2,2′-((4R,4R)-4,4′-(biphenyl-4,4′-diylbis(azandiyl))bis(oxomethylene)bis(thiazolidine-4,3-diyl))bis(2-oxo-1-phenylethane-2,1-diyl)bicarbamate], the EC50 is 1 to 100 nM in assay [1] (setting [3]), less than 0.1 nM in assay [2] (Huh-7.5.1) and less than 0.1 nM in assay [2] (setting [3]). Moreover, the “EC50 (in words)” value in assay [2] is listed as “significantly low”.
